Test results: patent US7030158B2, “Therapeutic compounds” (Ardenia Investments Ltd., priority 2002, dated 2006)

Key:
[1] = system: rats; settings: rat, in vivo, ip, 100 mg/kg
Method: A single dose i.p. toxicity study in rats was carried out. […] The minimal lethal dose is thus above 100 mg/kg body weight for these compounds.

[2] = system: Human Breast Adenocarcinoma Cell Line MDA-MB-231; experiment: Drug cytotoxicity testing (viable cell count, trypan blue exclusion) in MDA-MB-231 cultures; assay type: cell-based; settings: for Tumor Cell Number: compound or drug alone 10^−7 mol/L (100 nM), medium with 5% FBS
Method: MDA-MB-231 cells were propagated in MEM culture medium with 2 mM L-glutamine, 10% heat-inactivated fetal bovine serum (FBS) and antibiotics. DU 145 cells were cultured in MEM culture medium containing 2 mM L-glutamine, 1 mM sodium pyruvate, 10% FBS and antibiotics. SKOV-3 cells were cultured in McCoy's 5A culture medium, supplemented with 1,5 mM L-glutamine, 10% FBS and antibiotics. A549 cells were cultured in Ham's F-12 culture medium with 1 mM L-glutamine, 10% FBS and antibiotics.
The cell cultures in cultivation plates were allowed to adhere for 24 hour of incubation. […] The cells were incubated for 2 consecutive days. At the end of the incubation period adherent cells were detached by trypsinization and the number of viable cells was counted using trypan blue exclusion test and a hemocytometer. All data were derived from an average of three determinations each in six replicates. The results were expressed as mean cell number±SE and the differences between control and test series evaluated by means of Student's t-test. The drug cytotoxicity was evaluated based on the extent of cell growth inhibition.
Therefore an average of negative controls was calculated. […] Therefore an average of positive controls was calculated (for each antibiotic).

Structure (SMILES) | mortality [1] | Tumor Cell Number [2] | further results
CC1=C(/C=C/C(C)=C/C=C/C(C)=C/C(=O)N[C@@H](CS(=O)O)C(=O)O)C(C)(C)CCC1 (stereo in doubt) [I-2, N-(all-trans-Retinoyl)-L-cysteinesulfinic acid] | did not produce mortality |  | 
CCCCOC(=O)[C@H](CS(=O)(=O)O)NC(=O)\C=C(C)/C=C/C=C(C)/C=C/C1=C(C)CCCC1(C)C [II-1e] |  | (26.0 ± 1.27) × 10^3, cell growth inhibition | 
CC1=C(/C=C/C(C)=C/C=C/C(C)=C/C(=O)N[C@@H](CS(=O)(=O)O)C(=O)O)C(C)(C)CCC1 [I-1, N-(all-trans-Retinoyl)-L-cysteic acid] | did not produce mortality |  | 
CC1=C(/C=C/C(C)=C/C=C/C(C)=C\C(=O)N[C@@H](CS(=O)(=O)O)C(=O)OC(C)C)C(C)(C)CCC1 [II-1c] |  | 29.0 ± 1.26 × 10^3 | 
CC1=C(/C=C/C(C)=C/C=C/C(C)=C\C(=O)N[C@@H](CCS(=O)(=O)O)C(=O)O)C(C)(C)CCC1 [II-3, N-(13-cis-Retinoyl)-L-homocysteic acid] | did not produce mortality |  | 
COC(=O)[C@H](CCS(=O)(=O)O)NC(=O)/C=C(C)/C=C/C=C(C)/C=C/C1=C(C)CCCC1(C)C [I-3a] |  |  | cell growth inhibition achieved when increasing the concentration ([2]; compound (sodium salt) alone, concentration range 10^−9 to 10^−7 M, listed as II-3a): ~49%
